Assay results as given in ChEMBL document CHEMBL1201862, “PubChem BioAssay data set” (2004).
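Step 1: Grow cells in 96-well plates. Step 2: Expose to compound for 48 hours at 5 concentrations. Step 3: Interpolate endpoints linearly; if unreached, use highest concentration. Here, GI50 denotes the concentration required for 50% inhibition of growth.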 Calls of active or inactive are those of the source. Cut-off read from the data, not from the text of the source: active = GI50 up to about 1.1 µM and inactive = higher.

Legend:
Experiment in all cases: NCI tumour cell line growth inhibition, 48 h
[1] = system: NCI-H522
[2] = system: UACC-62
[3] = system: T47D
[4] = system: ACHN
[5] = system: NCI-H226
[6] = system: SF-268
[7] = system: CAKI-1
[8] = system: RXF 393
[9] = system: K562
[10] = system: BT-549
[11] = system: OVCAR-5
[12] = system: MDA-MB-435
[13] = system: KM12
[14] = system: A549
[15] = system: HCT-15
[16] = system: SK-MEL-2
[17] = system: SK-OV-3
[18] = system: LOX IMVI
[19] = system: Hs-578T

Row | SMILES | GI50 [1] | GI50 [2] | GI50 [3] | GI50 [4] | GI50 [5] | GI50 [6] | GI50 [7] | GI50 [8] | GI50 [9] | GI50 [10] | GI50 [11] | GI50 [12] | GI50 [13] | GI50 [14] | GI50 [15] | GI50 [16] | GI50 [17] | GI50 [18] | GI50 [19]
1 | Cc1ccc([N+](=O)[O-])cc1S(=O)(=O)Nc1ccc(C2=NN(S(=O)(=O)c3cc([N+](=O)[O-])ccc3C)C(c3ccccc3O)C2)cc1 (stereo not given) | 44 µM (inactive) | 58.5 µM (inactive) | > 100 µM (inactive) | 80.4 µM (inactive) | > 100 µM (inactive) | 26.5 µM (inactive) | > 100 µM (inactive) | 36.8 µM (inactive) | 31.6 µM (inactive) | > 100 µM (inactive) | > 100 µM (inactive) | > 100 µM (inactive) | > 100 µM (inactive) | 82.2 µM (inactive) | > 100 µM | 31.5 µM (inactive) | 51.8 µM (inactive) | > 100 µM (inactive) | 
2 | CC(C)NCC(O)c1ccc(OCc2ccccc2)c(OCc2ccccc2)c1-c1ccccc1 (stereo not given) | 1.65 µM (inactive) | 1.41 µM (inactive) | 2.74 µM (inactive) | 1.68 µM (inactive) | 2.33 µM (inactive) | 2.93 µM (inactive) | 1.76 µM (inactive) | 3 µM (inactive) | 1.63 µM (inactive) |  | 1.77 µM (inactive) | 1.79 µM (inactive) | 2.16 µM (inactive) | 1.72 µM (inactive) | 1.82 µM | 2.7 µM (inactive) | 1.67 µM (inactive) | 3.07 µM (inactive) | 1.34 µM (inactive)
3 | CN(C)C(=O)C(F)(F)C(c1ccccc1)C1C(=O)N(C)C(=O)N(C)C1=O (stereo not given) |  | > 100 µM (inactive) | > 100 µM (inactive) | > 100 µM (inactive) | > 100 µM (inactive) | > 100 µM (inactive) | > 100 µM (inactive) | > 100 µM (inactive) | > 100 µM (inactive) | > 100 µM (inactive) | > 100 µM (inactive) | > 100 µM (inactive) | > 100 µM (inactive) | > 100 µM (inactive) | > 100 µM | > 100 µM (inactive) | > 100 µM (inactive) | > 100 µM (inactive) | 
4 | O=C1CC(Cc2n[nH]c3c2CCCC3)CC(=O)N1 |  | > 100 µM (inactive) | > 100 µM (inactive) |  | > 100 µM (inactive) | > 100 µM (inactive) | > 100 µM (inactive) | > 100 µM (inactive) | > 100 µM (inactive) | > 100 µM (inactive) | > 100 µM (inactive) | > 100 µM (inactive) | > 100 µM (inactive) | > 100 µM (inactive) | > 100 µM | > 100 µM (inactive) | > 100 µM (inactive) | > 100 µM (inactive) | 
5 | N/C(=N\c1ccccc1)c1ccccc1N |  | > 100 µM (inactive) |  | > 100 µM (inactive) | > 100 µM (inactive) | > 100 µM (inactive) | > 100 µM (inactive) | > 100 µM (inactive) | > 100 µM (inactive) | > 100 µM (inactive) | > 100 µM (inactive) | > 100 µM (inactive) | > 100 µM (inactive) | > 100 µM (inactive) | > 100 µM | > 100 µM (inactive) | > 100 µM (inactive) | > 100 µM (inactive) | > 100 µM (inactive)
6 | CSc1nc(C)c2c(n1)N(c1ccc(Cl)cc1)CC2 | > 100 µM (inactive) | > 100 µM (inactive) | > 100 µM (inactive) | > 100 µM (inactive) | > 100 µM (inactive) | > 100 µM (inactive) | > 100 µM (inactive) | > 100 µM (inactive) | 88.3 µM (inactive) |  | > 100 µM (inactive) | > 100 µM (inactive) | > 100 µM (inactive) | > 100 µM (inactive) | > 100 µM | > 100 µM (inactive) | > 100 µM (inactive) | > 100 µM (inactive) | > 100 µM (inactive)
7 | CCOC(=O)/C1=C(\C)N(Cc2ccccc2)C(=O)c2ccccc2C(=O)c2c(OC(C)=O)ccc(OC(C)=O)c21 | 34.9 µM (inactive) | 53.2 µM (inactive) | > 100 µM (inactive) | > 100 µM (inactive) |  | 43.6 µM (inactive) | 72.3 µM (inactive) | 33.2 µM (inactive) | 42.9 µM (inactive) |  | 41.7 µM (inactive) | 47.6 µM (inactive) | 47 µM (inactive) | 36.4 µM (inactive) | 69.3 µM | 97.5 µM (inactive) | > 100 µM (inactive) | > 100 µM (inactive) | 33.5 µM (inactive)
8 | C[N+](C)(C)CC(=O)N/N=C(/Cc1nc2ccc(Cl)cc2nc1O)C1=NS(=O)(=O)c2cc(S(N)(=O)=O)c(Cl)cc2N1 | > 100 µM (inactive) | > 100 µM (inactive) |  | > 100 µM (inactive) |  | > 100 µM (inactive) |  | > 100 µM (inactive) | > 100 µM (inactive) |  | > 100 µM (inactive) |  | > 100 µM (inactive) | > 100 µM (inactive) |  | > 100 µM (inactive) | > 100 µM (inactive) |  | 
9 | O=C1C(Cl)=C(Cl)C(=O)C(CCNc2nccs2)=C1Cl | 13.1 µM (inactive) | 20.7 µM (inactive) | 43.5 µM (inactive) | 27.4 µM (inactive) |  | 38.6 µM (inactive) | 19.3 µM (inactive) | 22.4 µM (inactive) | 22.3 µM (inactive) |  | 44.3 µM (inactive) | 21.4 µM (inactive) | 32.7 µM (inactive) | > 100 µM (inactive) | 20.4 µM | 27.6 µM (inactive) | > 100 µM (inactive) |  | 33.5 µM (inactive)
10 | Cc1ccc(NC(=O)C(=O)C(C(=O)/C=C/c2ccccc2)C2OC(=O)c3ccccc32)c(C)c1 (stereo not given) | > 100 µM (inactive) | > 100 µM (inactive) |  | > 100 µM (inactive) | > 100 µM (inactive) | > 100 µM (inactive) | > 100 µM (inactive) | > 100 µM (inactive) | 85.7 µM (inactive) |  | > 100 µM (inactive) |  | > 100 µM (inactive) | > 100 µM (inactive) | > 100 µM |  | > 100 µM (inactive) | > 100 µM (inactive) | 
11 | CCCCCCCCCCCCCCCCCCOCC(CO[PH](=O)O)OCCCCCCCCCCCCCCCCCC (stereo not given) | > 50 µM (inactive) |  | > 50 µM (inactive) |  | > 50 µM (inactive) | > 50 µM (inactive) | > 50 µM (inactive) | > 50 µM (inactive) | > 50 µM (inactive) |  | > 50 µM (inactive) | > 50 µM (inactive) | > 50 µM (inactive) | > 50 µM (inactive) | > 50 µM | > 50 µM (inactive) | > 50 µM (inactive) | > 50 µM (inactive) | > 50 µM (inactive)
12 | COc1cc(O)c(C(C)=O)c(O)c1 | 43.1 µM (inactive) | 46.1 µM (inactive) | 25.6 µM (inactive) | 42.7 µM (inactive) |  | 69.8 µM (inactive) |  | > 100 µM (inactive) | 18.7 µM (inactive) |  | > 100 µM (inactive) | 82.6 µM (inactive) | > 100 µM (inactive) | > 100 µM (inactive) | 76.7 µM | 78.9 µM (inactive) | > 100 µM (inactive) | 75.9 µM (inactive) | 62.7 µM (inactive)
13 | CN1C(=O)C2(C=CC(O)CC2)c2ccccc21 (stereo not given) | > 100 µM (inactive) | > 100 µM (inactive) | > 100 µM (inactive) | > 100 µM (inactive) | > 100 µM (inactive) | > 100 µM (inactive) | > 100 µM (inactive) |  | > 100 µM (inactive) |  | > 100 µM (inactive) | > 100 µM (inactive) | > 100 µM (inactive) | > 100 µM (inactive) | > 100 µM | > 100 µM (inactive) | > 100 µM (inactive) | > 100 µM (inactive) | 
14 | CCc1cc2c(c3c1CCCC3=O)CC1(C2)Cc2cc(CC)c3c(c2C1)C(=O)CCC3 | 62.8 µM (inactive) |  | > 100 µM (inactive) | 66.4 µM (inactive) | > 100 µM (inactive) | > 100 µM (inactive) | 89.5 µM (inactive) | > 100 µM (inactive) | 65.9 µM (inactive) |  | > 100 µM (inactive) | 47.2 µM (inactive) | 47.2 µM (inactive) | > 100 µM (inactive) | > 100 µM | > 100 µM (inactive) | > 100 µM (inactive) | > 100 µM (inactive) | > 100 µM (inactive)
15 | COc1ccc2oc(-c3ccc(OC)c(OC)c3OC)cc(=O)c2c1 | 18.8 µM (inactive) | 55.2 µM (inactive) |  | 61.8 µM (inactive) | 10.5 µM (inactive) | 36.4 µM (inactive) | 53 µM (inactive) | 22.4 µM (inactive) | 40.6 µM (inactive) |  | 28.4 µM (inactive) |  |  | 36.6 µM (inactive) |  | 22.9 µM (inactive) | > 100 µM (inactive) | 46.8 µM (inactive) | 
16 | C(#C[C@@]12CCC[C@@H]1NCO2)c1ccc2c(c1)OCO2 | 37.3 µM (inactive) | 78.3 µM (inactive) | 58.2 µM (inactive) | 65 µM (inactive) | > 100 µM (inactive) | 65.2 µM (inactive) | 67.1 µM (inactive) | 49.3 µM (inactive) | 21.9 µM (inactive) |  | > 100 µM (inactive) | 61.1 µM (inactive) | 69.7 µM (inactive) | > 100 µM (inactive) | 54.8 µM | > 100 µM (inactive) | > 100 µM (inactive) | 46.6 µM (inactive) | 37.8 µM (inactive)
17 | O=C(NC1CCC(=O)N1C(=O)OCc1ccccc1)OCc1ccccc1 (stereo not given) | > 100 µM (inactive) | > 100 µM (inactive) |  | > 100 µM (inactive) | > 100 µM (inactive) | > 100 µM (inactive) | > 100 µM (inactive) | > 100 µM (inactive) | > 100 µM (inactive) | > 100 µM (inactive) | > 100 µM (inactive) | > 100 µM (inactive) | > 100 µM (inactive) | > 100 µM (inactive) | > 100 µM | > 100 µM (inactive) | > 100 µM (inactive) |  | > 100 µM (inactive)
